In article PMC2692652 (Biochemistry, 2009):

Experiments:
R446A M. tb PGDH [1] = biological target: T1, R446A M. tb PGDH (Mycobacterium tuberculosis, UniProt P9WNX3, R445A); type: biochemical; conditions: pH 7.5
R451A M. tb PGDH = R451A M. tb PGDH (Mycobacterium tuberculosis, UniProt P9WNX3, R450A); type: biochemical; conditions: pH 7.5
K439A M. tb PGDH [2] = biological target: T2, K439A M. tb PGDH (Mycobacterium tuberculosis, UniProt P9WNX3, K438A); type: biochemical; conditions: pH 7.5
[3] = biological target: R446A-R501A-K439A M. tb PGDH (Mycobacterium tuberculosis, UniProt P9WNX3, K438A/R445A/R500A); type: biochemical; conditions: pH 7.5
R501A M. tb PGDH [4] = biological target: T3, R501A M. tb PGDH (Mycobacterium tuberculosis, UniProt P9WNX3, R500A); type: biochemical; conditions: pH 7.5
[5] = biological target: T4, R451A-R501A-K439A M. tb PGDH (Mycobacterium tuberculosis, UniProt P9WNX3, K438A/R450A/R500A); type: biochemical
H447A M. tb PGDH [6] = biological target: T5, H447A M. tb PGDH (Mycobacterium tuberculosis, UniProt P9WNX3, H446A); type: biochemical; conditions: pH 7.5
[7] = biological target: T4, R451A-R501A-K439A M. tb PGDH; type: biochemical; conditions: pH 7.5
W327F M. tb PGDH [8] = biological target: T6, W327F M. tb PGDH (Mycobacterium tuberculosis, UniProt P9WNX3, W326F); type: binding; conditions: pH 7.5
[9] = biological target: T4, R451A-R501A-K439A M. tb PGDH; type: binding; conditions: pH 7.5
W327F M. tb PGDH [10] = biological target: T6, W327F M. tb PGDH; type: biochemical; conditions: pH 7.5
[11] = system: native and mutant M. tb PGDH; assay: NADH dependence of steady state activity, summary over enzymes; type: biochemical, Mycobacterium tuberculosis
W29F M. tb PGDH [12] = biological target: T7, W29F M. tb PGDH (Mycobacterium tuberculosis, UniProt P9WNX3, W28F); type: binding; conditions: pH 7.5
W29F M. tb PGDH [13] = biological target: T7, W29F M. tb PGDH; type: biochemical; conditions: pH 7.5
H447A M. tb PGDH [14] = biological target: T5, H447A M. tb PGDH; conditions: read-out: Ki, HPAP (substrate inhibition); cited from earlier work
R501A M. tb PGDH [15] = biological target: T3, R501A M. tb PGDH; conditions: read-out: Ki, HPAP (substrate inhibition); cited from earlier work
R446A M. tb PGDH [16] = biological target: T1, R446A M. tb PGDH; conditions: read-out: Ki, HPAP (substrate inhibition); cited from earlier work
K439A M. tb PGDH [17] = biological target: T2, K439A M. tb PGDH; conditions: read-out: Ki, HPAP (substrate inhibition); cited from earlier work

N[C@@H](CO)C(=O)O [L-serine]
n (Hill coefficient), serine inhibition, High Substrate (R446A M. tb PGDH [1]): 0.9 ± 0.1 | n (Hill coefficient), serine inhibition, Peak Substrate (R446A M. tb PGDH [1]): 1.3 ± 0.1 | n (Hill coefficient), serine inhibition, High Substrate (R451A M. tb PGDH): 1.7 ± 0.3 | n (Hill coefficient), serine inhibition, Peak Substrate (R451A M. tb PGDH): 1.6 ± 0.1 | n (Hill coefficient), serine inhibition, High Substrate (K439A M. tb PGDH [2]): 1.2 ± 0.1 | n (Hill coefficient), serine inhibition, Peak Substrate (K439A M. tb PGDH [2]): 1.2 ± 0.1 | n (Hill coefficient), serine inhibition, Peak Substrate [3]: 1.0 ± 0.1 | n (Hill coefficient), serine inhibition, High Substrate (R501A M. tb PGDH [4]): 1.7 ± 0.1 | n (Hill coefficient), serine inhibition, Peak Substrate (R501A M. tb PGDH [4]): 1.5 ± 0.1 | Inhibition of catalytic activity by serine [5]: unable to be inhibited | n (Hill coefficient), serine inhibition, High Substrate (H447A M. tb PGDH [6]): 1.5 ± 0.1 | n (Hill coefficient), serine inhibition, Peak Substrate (H447A M. tb PGDH [6]): 1.7 ± 0.1

NADH
K0.5, Activity vs NADH [7]: 83 ± 13 µM | n (Hill coefficient), Activity vs NADH [7]: 1.5 ± 0.2 | K0.5, FRET vs NADH (W327F M. tb PGDH [8]): 3.0 ± 0.3 µM | n (Hill coefficient), FRET vs NADH (W327F M. tb PGDH [8]): 1.7 ± 0.3 | K0.5, FRET vs NADH [9]: 3.6 ± 0.1 µM | n (Hill coefficient), FRET vs NADH [9]: 2.3 ± 0.2 | K0.5, Activity vs NADH (W327F M. tb PGDH [10]): 89 ± 4 µM | n (Hill coefficient), Activity vs NADH (W327F M. tb PGDH [10]): 2.0 ± 0.1 | K0.5 for NADH for activity [11]: 80 to 100 mM | K0.5, FRET vs NADH (W29F M. tb PGDH [12]): 1.9 ± 0.1 µM | n (Hill coefficient), FRET vs NADH (W29F M. tb PGDH [12]): 1.2 ± 0.1 | K0.5, Activity vs NADH (W29F M. tb PGDH [13]): 99 ± 2 µM | n (Hill coefficient), Activity vs NADH (W29F M. tb PGDH [13]): 2.2 ± 0.1

hydroxypyruvic acid phosphate [HPAP]
Ki (H447A M. tb PGDH [14]): 870 ± 50 µM | Ki (R501A M. tb PGDH [15]): 1020 ± 30 µM | Ki (R446A M. tb PGDH [16]): 289 ± 15 µM | Ki (K439A M. tb PGDH [17]): 54 ± 4 µM
